In test [1] the test system is SARS-CoV-2. Put plainly: (§1) Functional immunofluorescence assay to measure dose dependent changes in antiviral-drug inhibitory efficacy against hCoV-19/USA-WA1/2020 in HeLa-ACE2 cells which are seeded prior to drug treatment, then infected with hCoV-19/USA-WA1/2020. Cells are fixed with 10 % formaldehyde, washed with PBS, permeabilized with permeabilization buffer, then washed with wash buffer. The cells are incubated with nucleoprotein primary antibody IC7C7. Following primary staining, cells are washed with wash buffer and incubated in a solution of with Alexa fluor 488 and DAPI. Infected and uninfected cells are visualized and analyzed by Gen5 software. The assay has been performed by Icahn School of Medicine at Mount Sinai. The test is classed as organism-based, Homo sapiens.

The subject of test [2] is SARS-CoV-2. The description is as §1, with “iPSC-Pneumocyte” for “HeLa-ACE2”, “to” for “to drug”. The test is classed as organism-based, Homo sapiens. The note with it: Severe acute respiratory syndrome coronavirus 2, Pneumocyte; for EC90: Baseline response 0 %, Maximum response 100 %.
Test [3] deals with Middle East respiratory syndrome-related coronavirus. The test can be described thus: microbe, parasite or virus in culture. It is filed as functional, organism-based, Chlorocebus sabaeus. The note with it: Vero 76.
Test [4] shares this test system. Put plainly: microbe, parasite or virus in culture. It is filed as functional, organism-based, Chlorocebus sabaeus, VeroE6/TMPRSS2.
[5] abbreviates: Severe acute respiratory syndrome coronavirus 2, HeLa-ACE2.
Where [6] appears, read: Middle East respiratory syndrome-related coronavirus, VeroE6/TMPRSS2.

The structures appear in SMILES notation. Where “and” joins values, the source holds several entries; their conditions need not be identical. Equal values may be shown once. Bounds are passed on as bounds.

One may read the EC50 as the concentration that produces a half-maximal response. The low end stands for an effect from little substance, the high end for a need for much substance. As usually defined, the EC90 is the point of the concentration-response curve where the effect stands at 90%. As to `CNC(=O)c1c[nH]c2ncnc(N[C@H](c3ccc4c(c3)S(=O)(=O)CCC4)C(C)C)c12`, the values for the concentration giving a half-maximal response (EC50) (with SARS-CoV-2 [1] (setting [5]); in the test on SARS-CoV-2 [2]; in test [3]) were above 20 µM, 6.74 µM and above 32 µM, respectively. Besides, the EC90 in the test with SARS-CoV-2 [1] (Severe acute respiratory syndrome coronavirus 2, HeLa-ACE2, Baseline response 0 %, Hill slope -10.584, Maximum measured 109.331 %, Maximum response 100 %, Minimum measured 66.391 %, R squared 0.561) was above 20 µM; with SARS-CoV-2 [2] (Hill slope -0.412, Maximum measured 88.736 %, Minimum measured 31.934 %, R squared 0.862), above 50 µM.
In the case of `CC(C)[C@@H](Nc1ncnc2[nH]c(-c3cnn(C)c3C#N)cc12)c1ccc2c(n1)OCCO2`, the EC90 in the test with SARS-CoV-2 [1] (Baseline response 0 %, EC90 CI (lower) 0.252 uM, EC90 CI (upper) 0.378 uM, Hill slope -1.375, Maximum measured 105.062 %, Maximum response 100 %, Minimum measured 1.471 %, R squared 0.975) was 7.55 µM; in the test on SARS-CoV-2 [1] (Baseline response 0 %, EC90 CI (lower) 1.033 uM, EC90 CI (upper) 2.755 uM, Hill slope -2.587, Maximum measured 119.294 %, Maximum response 100 %, Minimum measured 1.653 %, R squared 0.93) it was 9.22 µM; in the test with SARS-CoV-2 [1] (Severe acute respiratory syndrome coronavirus 2, HeLa-ACE2, Baseline response 0 %, Hill slope -24.486, Maximum measured 143.7 %, Maximum response 100 %, Minimum measured 4.604 %, R squared 0.738), 6.44 µM; in the test with SARS-CoV-2 [1] (Severe acute respiratory syndrome coronavirus 2, HeLa-ACE2, Baseline response 0 %, EC90 CI (lower) 1.926 uM, EC90 CI (upper) 3.068 uM, Hill slope -3.008, Maximum measured 101.777 %, Maximum response 100 %, Minimum measured 4.949 %, R squared 0.988), 10.5 µM; in the test on SARS-CoV-2 [2] (EC90 CI (lower) 0 uM, EC90 CI (upper) 0 uM, Hill slope -10.753, Maximum measured 116.418 %, Minimum measured 5.314 %, R squared 0.553), 15.6 µM; in test [4] (setting [6]), above 5 µM. Moreover, the EC50 is 12.7 µM with SARS-CoV-2 [2] and above 5 µM in test [4] (setting [6]).
As to `CNCc1cc(-c2cc3c(N[C@@H](c4ccc5c(c4)S(=O)(=O)CCC5)C(C)C)ncnc3[nH]2)co1`, the concentration giving a half-maximal response (EC50) is above 20 µM with SARS-CoV-2 [1] (setting [5]), 11.6 µM in the test with SARS-CoV-2 [1] (hela-ace2), 3.34 µM in the test on SARS-CoV-2 [2] and above 5 µM in test [4] (setting [6]). Further, the concentration for an effect of 90% (EC90) in the test on SARS-CoV-2 [1] (Severe acute respiratory syndrome coronavirus 2, HeLa-ACE2, Baseline response 0 %, Hill slope -1.471, Maximum measured 134.366 %, Maximum response 100 %, Minimum measured 28.123 %, R squared 0.287) is above 20 µM; with SARS-CoV-2 [1] (Severe acute respiratory syndrome coronavirus 2, HeLa-ACE2, Baseline response 0 %, Hill slope -3.107, Maximum measured 113.346 %, Maximum response 100 %, Minimum measured 56.361 %, R squared 0.692), above 20 µM; with SARS-CoV-2 [2] (Hill slope -0.579, Maximum measured 92.989 %, Minimum measured 2.106 %, R squared 0.758), above 50 µM; in test [4] (setting [6]), above 5 µM.
As for `CC(C)[C@@H](Nc1ncnc2[nH]c(C(=O)N[C@@H]3CCN(C)C3)cc12)c1ccc2c(c1)S(=O)(=O)CCC2`, the results for the EC50 (in the test on SARS-CoV-2 [1] (setting [5]); in the test on SARS-CoV-2 [2]; in test [4] (setting [6])) were above 20 µM, above 50 µM and above 5 µM, respectively. The 90% effect concentration (EC90) is above 20 µM with SARS-CoV-2 [1] (Severe acute respiratory syndrome coronavirus 2, HeLa-ACE2, Baseline response 0 %, Hill slope 0.166, Maximum measured 108.327 %, Maximum response 100 %, Minimum measured 87.557 %, R squared 0.011); above 20 µM in the test on SARS-CoV-2 [1] (Severe acute respiratory syndrome coronavirus 2, HeLa-ACE2, Baseline response 0 %, Hill slope -0.788, Maximum measured 109.068 %, Maximum response 100 %, Minimum measured 93.8 %, R squared 0.114); above 50 µM in the test with SARS-CoV-2 [2] (Hill slope -0.484, Maximum measured 101.646 %, Minimum measured 52.305 %, R squared 0.601); above 5 µM in test [4] (setting [6]).
For `Cn1ncc(-c2cc3c(N[C@@H](c4ccc5c(n4)OCCO5)C(C)(C)C)ncnc3[nH]2)c1C#N`, the figures for the EC50 (in the test on SARS-CoV-2 [1] (setting [5]); in the test with SARS-CoV-2 [1] (hela-ace2); in test [4] (setting [6])) were 1.49 µM, 1.6 µM and above 5 µM, respectively. Moreover, the EC90 with SARS-CoV-2 [1] (Severe acute respiratory syndrome coronavirus 2, HeLa-ACE2, Baseline response 0 %, Hill slope -0.781, Maximum measured 101.751 %, Maximum response 100 %, Minimum measured 4.671 %, R squared 0.23) is above 20 µM; in the test with SARS-CoV-2 [1] (Severe acute respiratory syndrome coronavirus 2, HeLa-ACE2, Baseline response 0 %, Hill slope -0.984, Maximum measured 108.122 %, Maximum response 100 %, Minimum measured 8.006 %, R squared 0.973) it was above 10 µM; in test [4] (setting [6]), above 5 µM.
Take `CNC(=O)Cn1cc(-c2cc3c(N[C@@H](c4ccc5c(c4)S(=O)(=O)CCC5)C(C)C)ncnc3[nH]2)cn1`: the EC50 in the test on SARS-CoV-2 [1] (setting [5]) was above 20 µM; in the test with SARS-CoV-2 [2], above 50 µM; in test [4] (setting [6]) it was above 5 µM. For the same compound, the EC90 was above 20 µM with SARS-CoV-2 [1] (Severe acute respiratory syndrome coronavirus 2, HeLa-ACE2, Baseline response 0 %, Hill slope 1.327, Maximum measured 117.537 %, Maximum response 100 %, Minimum measured 90.244 %, R squared 0.066); above 20 µM in the test on SARS-CoV-2 [1] (Severe acute respiratory syndrome coronavirus 2, HeLa-ACE2, Maximum measured 116.513 %, Minimum measured 98.017 %); above 50 µM in the test with SARS-CoV-2 [2] (Hill slope -7.964, Maximum measured 130.776 %, Minimum measured 73.915 %, R squared 0.151); above 5 µM in test [4] (setting [6]).
On to `COc1ccc([C@H](Cc2nnn[nH]2)NC(=O)c2ncnc3[nH]ccc23)cc1`, for which the concentration giving a half-maximal response (EC50) was above 20 µM in the test on SARS-CoV-2 [1] (setting [5]) and above 5 µM in test [4] (setting [6]). For the same compound, the EC90 was above 20 µM in the test on SARS-CoV-2 [1] (Severe acute respiratory syndrome coronavirus 2, HeLa-ACE2, Baseline response 0 %, Hill slope -0.286, Maximum measured 116.588 %, Maximum response 100 %, Minimum measured 75.952 %, R squared 0.436); above 20 µM in the test on SARS-CoV-2 [1] (Severe acute respiratory syndrome coronavirus 2, HeLa-ACE2, Baseline response 0 %, Hill slope -1.346, Maximum measured 102.013 %, Maximum response 100 %, Minimum measured 88.847 %, R squared 0.139); above 5 µM in test [4] (setting [6]).
Consider `Cc1nn(C)cc1-c1cc2c(N[C@H](c3ccc4c(c3)S(=O)(=O)CCC4)C(C)C)ncnc2[nH]1`, for which the EC50 in the test with SARS-CoV-2 [1] (setting [5]) is above 20 µM; in test [4] (setting [6]), above 5 µM. In addition, the EC90 is above 20 µM in the test with SARS-CoV-2 [1] (Severe acute respiratory syndrome coronavirus 2, HeLa-ACE2, Baseline response 0 %, Hill slope -2.191, Maximum measured 111.189 %, Maximum response 100 %, Minimum measured 56.402 %, R squared 0.73); above 20 µM in the test on SARS-CoV-2 [1] (Severe acute respiratory syndrome coronavirus 2, HeLa-ACE2, Baseline response 0 %, Hill slope -5.449, Maximum measured 120.747 %, Maximum response 100 %, Minimum measured 82.491 %, R squared 0.099); above 5 µM in test [4] (setting [6]).
`C[C@H](C(=O)O)[C@@H](NC(=O)c1ncnc2[nH]ccc12)c1ccc(Br)cc1`: the EC50 was above 20 µM with SARS-CoV-2 [1] (setting [5]) and above 5 µM in test [4] (setting [6]). Moreover, the EC90 in the test with SARS-CoV-2 [1] (Severe acute respiratory syndrome coronavirus 2, HeLa-ACE2, Baseline response 0 %, Hill slope -0.083, Maximum measured 104.611 %, Maximum response 100 %, Minimum measured 71.809 %, R squared 0.037) was above 20 µM; in the test with SARS-CoV-2 [1] (Severe acute respiratory syndrome coronavirus 2, HeLa-ACE2, Maximum measured 2742.07 %, Minimum measured 91.919 %), above 20 µM; in test [4] (setting [6]) it was above 5 µM.
As for `CC(C)[C@H](Nc1ncnc2[nH]ccc12)c1ccc2c(c1)S(=O)(=O)CCC2`, the 50% effective concentration (EC50) in the test with SARS-CoV-2 [1] (setting [5]) is above 20 µM; in test [4] (veroe6/tmprss2) it was 2.42 µM and > 20 µM and > 5 µM. In addition, the 90% effect concentration (EC90) with SARS-CoV-2 [1] (Severe acute respiratory syndrome coronavirus 2, HeLa-ACE2, Maximum measured 129.029 %, Minimum measured 103.942 %) was above 20 µM; in the test on SARS-CoV-2 [1] (Severe acute respiratory syndrome coronavirus 2, HeLa-ACE2, Maximum measured 158.705 %, Minimum measured 84.767 %) it was above 20 µM; in test [4], above 20 µM.
Consider `CC(C)[C@@H](Nc1ncnc2[nH]c(-c3cnn(C)c3)cc12)c1ccc2c(c1)S(=O)(=O)CCC2`, for which the 50% effective concentration (EC50) in the test with SARS-CoV-2 [1] (setting [5]) was above 20 µM; with SARS-CoV-2 [2], 7.59 µM. Besides, the EC90 in the test with SARS-CoV-2 [1] (Severe acute respiratory syndrome coronavirus 2, HeLa-ACE2, Baseline response 0 %, Hill slope -10.363, Maximum measured 119.22 %, Maximum response 100 %, Minimum measured 72.714 %, R squared 0.37) was above 20 µM; with SARS-CoV-2 [2] (Hill slope -0.905, Maximum measured 103.795 %, Minimum measured 0.206 %, R squared 0.828), above 50 µM.
As for `CC(C)[C@H](Nc1ncnc2[nH]c(-c3cnn(C)c3C#N)cc12)c1ccc2c(n1)OCCO2`, the concentration for an effect of 90% (EC90) with SARS-CoV-2 [1] (Baseline response 0 %, EC90 CI (lower) 0.11 uM, EC90 CI (upper) 0.158 uM, Hill slope -1.629, Maximum measured 105.242 %, Maximum response 100 %, Minimum measured 1.508 %, R squared 0.979) is 1.96 µM; in the test on SARS-CoV-2 [1] (Severe acute respiratory syndrome coronavirus 2, HeLa-ACE2, Baseline response 0 %, EC90 CI (lower) 0.09 uM, EC90 CI (upper) 0.442 uM, Hill slope -1.557, Maximum measured 125.33 %, Maximum response 100 %, Minimum measured 4.425 %, R squared 0.913), 3.36 µM; in test [4] (setting [6]) it was above 5 µM. Also, the concentration giving a half-maximal response (EC50) with SARS-CoV-2 [1] (setting [5]) was 0.819 µM; in the test on SARS-CoV-2 [1] (hela-ace2), 0.508 µM; in test [4] (setting [6]), above 5 µM.

Values taken from ChEMBL document CHEMBL5441381, “ASAP - In vitro antiviral effect” (2024).
